Measured values as given in PubChem BioAssay (NCI).
Where “and” joins values, the source holds several entries; their conditions need not be identical. Equal entries are not always repeated.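 Where inhibition never reached the appropriate level, the endpoint shown equals the highest concentration tested. Otherwise, values were interpolated linearly from a five-concentration, 48-hour dose response in 96-well plates. GI50: concentration for 50% inhibition of growth. TGI: concentration producing complete growth inhibition.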

What was measured:
Assay in all cases: growth of human tumour cells (NCI), 48 h
TK-10 renal = system: TK-10 renal
SK-MEL-5 melanoma = system: SK-MEL-5 melanoma
SR leukemia = system: SR leukemia
SK-MEL-28 melanoma = system: SK-MEL-28 melanoma
EKVX NSCLC = system: EKVX NSCLC
RXF 393 renal = system: RXF 393 renal
HOP-92 NSCLC = system: HOP-92 NSCLC
LOX IMVI melanoma = system: LOX IMVI melanoma
SK-MEL-2 melanoma = system: SK-MEL-2 melanoma
CCRF-CEM leukemia = system: CCRF-CEM leukemia

| SMILES | GI50 (TK-10 renal) [µM] | TGI (TK-10 renal) [µM] | GI50 (SK-MEL-5 melanoma) [µM] | TGI (SK-MEL-5 melanoma) | GI50 (SR leukemia) [µM] | TGI (SR leukemia) [µM] | GI50 (SK-MEL-28 melanoma) [µM] | TGI (SK-MEL-28 melanoma) | GI50 (EKVX NSCLC) [µM] | TGI (EKVX NSCLC) | GI50 (RXF 393 renal) [µM] | TGI (RXF 393 renal) | GI50 (HOP-92 NSCLC) | TGI (HOP-92 NSCLC) | GI50 (LOX IMVI melanoma) [µM] | TGI (LOX IMVI melanoma) | GI50 (SK-MEL-2 melanoma) | TGI (SK-MEL-2 melanoma) | GI50 (CCRF-CEM leukemia) | TGI (CCRF-CEM leukemia) |
| --- | --- | --- | --- | --- | --- | --- | --- | --- | --- | --- | --- | --- | --- | --- | --- | --- | --- | --- | --- | --- |
| OCCCCC#Cc1ccccc1C#Cc1cccs1 | 25.3 | 52.9 | 13.3 | 26 µM | 1.85 | 14.5 | 15.8 | 31.1 µM | 10.8 | 23.9 µM | 15.8 | 30.3 µM | 14.1 µM | 28.7 µM | 13.9 | 26.8 µM | 19 µM | 37.9 µM | 2.29 µM | 11.5 µM |
| COC(=O)C(C(=O)C(=O)Nc1ccc(C)cc1C)c1nc2ccc([N+](=O)[O-])cc2[nH]c1=O (configuration not stated) |  | > 100 |  | > 100 µM |  | > 100 |  | > 100 µM |  | > 100 µM |  | > 100 µM |  | > 100 µM |  | > 100 µM |  | > 100 µM |  | > 100 µM |
| NC(=O)N/N=C1/CCCC/C1=C\c1ccccc1 |  | > 100 |  | > 100 µM |  | > 100 |  | > 100 µM |  | > 100 µM |  | > 100 µM |  | > 100 µM |  | > 100 µM |  | > 100 µM |  | > 100 µM |
| CO[C@@]12[C@H](COC(N)=O)C3=C(C(=O)C(C)=C(N)C3=O)N1C[C@@H]1N[C@@H]12 | 2.63 |  | 1.6 | 1.22 µM and 3.25 µM and 1.69 µM | 0.0345 |  | 2.18 | 7.12 µM and 14.9 µM | 7.98 | 17.1 µM and 20.8 µM and 31.7 µM | 1.23 | 6.36 µM and 6.07 µM and 3.77 µM | 1.81 µM and 1.75 µM | 12.4 µM and 5.53 µM and 7.2 µM | 0.615 | 4.26 µM and 3.47 µM | 4.21 µM and 2.54 µM | 4.96 µM and 7.5 µM and 6.61 µM | 0.126 µM and 0.0625 µM | 13.2 µM and 1.96 µM and 18.6 µM |
| c1cc(-c2cnn3nc(N4CCOCC4)ccc23)nc(NC2CC2)n1 | 7.7 | 20.3 | 5.76 | 16.7 µM | 6.48 | 20 | 6.64 | > 23.7 µM | 10.5 | > 25 µM | 4.58 | 10.8 µM | 5.64 µM | > 25 µM | 6.23 | > 25 µM | 7.82 µM | 21.6 µM | 4.95 µM | > 25 µM |
| O=C(Nc1ccc([N+](=O)[O-])cc1)c1cc2ccccc2cc1O | 0.402 | 6.82 | 0.221 | 0.534 µM | 0.274 | 1.05 | 0.448 | > 36.5 µM | 0.322 | 3 µM | 0.34 | 1.26 µM | 0.172 µM | 0.557 µM | 0.405 |  | 0.285 µM | 0.722 µM | 0.754 µM | > 100 µM |
| C[C@@]1(CBr)C[C@@](C)(/C=C/Cl)[C@@H](Cl)C[C@H]1Cl |  | 28.7 |  | 26.1 µM |  | 16.9 |  | 31.3 µM |  | 33 µM |  | 27.9 µM |  | 27.7 µM |  | 23.7 µM |  | 8.46 µM |  | 19.8 µM |
| NC(=O)C12CCC1C1CCCCC12N1CCOCC1 (configuration not stated) |  | > 100 |  | > 100 µM |  | > 100 |  | > 100 µM |  | > 100 µM |  | > 100 µM |  | > 100 µM |  | > 100 µM |  | > 100 µM |  | > 100 µM |
| CSc1ccc(C(=O)/C=C/c2ccc(F)cc2)cc1 | 85.3 | > 100 | 75 | > 100 µM | 25.7 | 51.5 | 69.3 | > 100 µM | > 100 | > 100 µM | > 100 | > 100 µM | 75.9 µM | > 100 µM | 29.1 | 83.4 µM | > 100 µM | > 100 µM | 25.5 µM | 82.6 µM |
| Cc1cccc2cc3ccc4ccccc4c3cc12 |  | > 100 |  | 52.6 µM |  | 47.4 |  | > 100 µM |  | 78.3 µM |  | > 100 µM |  | > 100 µM |  | > 100 µM |  | 66.5 µM |  | 39.3 µM |
| O=C1/C(=C/c2ccc(C(F)(F)F)cc2)COc2ccc(O)cc21 | 3.7 | 14.3 | 1.97 | 4.38 µM | 1.21 | 10.6 | 1.79 | 3.8 µM | 10.7 | 22.5 µM | 1.74 | 3.48 µM | 11.8 µM | 24.7 µM | 1.69 | 3.11 µM | 9.43 µM | 21.9 µM | 0.228 µM | 1.42 µM |
| COc1cc(C(=C2SCCS2)c2nccc3cc(OC)c(OC)cc23)c([N+](=O)[O-])cc1OC |  | > 100 |  | > 100 µM |  | > 100 |  | > 100 µM |  | > 100 µM |  | > 100 µM |  | > 100 µM |  | > 100 µM |  | > 100 µM |  | > 100 µM |
